The record followed here is patent publication US5773573A, “HIV peptides” (priority 1994, dated 1998).

Residues, ends and D or L forms follow the SMILES beside them.

Data set [1] relates to autologous PHA T cell blasts. Kind of data set: Cytotoxicity Assay (51Cr release) of peptide-induced short-term PBMC cultures against autologous targets. The format is cell-based, human. Conditions: for autoreactive response (autocytotoxic, 51Cr release): peptide stimulant 100 ng/ml 4-8 hours. The method, then: (§1) Peripheral Blood Mononuclear Cells (PBMC) were isolated from 8 HIV seronegative individuals who volunteered as donors for the study. […] PBMC (10^6 /ml) from the each of the donors were incubated in the presence of VHP1 or control peptide at 100 ng/ml for 4-8 hours to produce Effector Cells. Irradiated autologous PBMC without VHP1 stimulation served as controls.
(§2) VHP1 induced short-term cultures of autoreactive T cells (Effector Cells) were assayed for cytotoxic activity against autologous PHA T cell blasts stimulated with 5 μg/ml PHA for 4-5 days at a concentration of 10^4 cells/well in the absence of either control or VHP1 peptide (Target Cells). 1-2×10^6 Target Cells were labeled with […] of ^51 Cr in 0.3 ml of medium for 1 hour at 37° C. Target cells were washed 3× in medium, diluted to 10^5 or 10^4 cells/ml and […] of cell suspension added to each well of a V-bottomed 96-well microtitre plate. Effector Cells were added to the Target Cells at Effector:Target (E:T) ratios from 50:1 to 6.25:1. Cultures were incubated for 4 hours at 37° C. and supernatants were harvested and counted for ^51 Cr release. Percent cytotoxicity is calculated using the formula : […] (experimental release-spontaneous release)/(maximum release-spontaneous release). Spontaneous release and maximum release were determined by incubating target cells in medium or 1.0% Triton ×-100 respectively. Results where calculated as means ± Standard Deviations (SD) of triplicate cultures and a positive result was scored above 20% specific lysis. The cytotoxicity assay was repeated for allogeneic Target cells from donors (Target-1, Target-2 and Target-3) and the percent specific lysis scored at an Effector:Target ratio of 10:1.

For data set [2], the system named is allogeneic PHA activated T cell Targets. Kind of data set: Cytotoxicity Assay (51Cr release) of VHP1-induced Effectors against allogeneic targets. The format is cell-based, human. Here is the method: as §1, §2
To establish the MHC specificity of the cytotoxic cells stimulated by VHP1, further Cytotoxicity Assays with allogeneic PHA activated T cell Targets with different MHC phenotypes were then performed. The Effectors were derived from short term cultures of PBMC from donors of either MHC B8 or B35 (trigger+) incubated with VHP1 for 4-8 hours. The Target Cells were from donors with either B8 B35 (trigger+) or B27(Trigger-) MHC phenotype. Target PBMC incubated with radioactive ^51 Cr for one hour before being mixed with Effectors. Effector Cells were mixed with radiolabelled Target Cells and incubated for 4 hours and lysis was measured by release of radioactive ^51 Cr.
The measurement of percent specific lysis by ^51 Cr release at an Effector to Target Ratio of 10:1.

The mark [3] stands for this setting: short term cultures of PBMC from donors positive for B8 or B35 (trigger+).

`CC(C)C[C@H](N)C(=O)N[C@@H](CCC(=O)O)C(=O)N[C@@H](CC(=O)O)C(=O)N[C@@H](CCCNC(=N)N)C(=O)N[C@@H](CCCNC(=N)N)C(=O)N[C@@H](C)C(=O)N[C@@H](C)C(=O)N[C@H](C(=O)N[C@@H](CC(=O)O)C(=O)N[C@H](C(=O)N[C@H](C(=O)N[C@@H](CS)C(=O)N[C@@H](CCCNC(=N)N)C(=O)N[C@@H](C)C(=O)O)C(C)C)[C@@H](C)O)C(C)C` [Control, NH2 LeuGluAspArgArgAlaAlaValAspThrValCysArgAlaCOOH] (H-LEDRRAAVDTVCRA-OH): the “autoreactive response (autocytotoxic, 51Cr release)” value (“autoreactive response” for short) in data set [1] (PBMC of donor eight (Trigger+)), in data set [1] (PBMC of donor five (Trigger+)), in data set [1] (PBMC of donor four (Trigger-)), in data set [1] (PBMC of donor nine (Trigger-)), in data set [1] (PBMC of donor one (Trigger-)) and in data set [1] (PBMC of donor seven (Trigger+)) was “- (a positive result was scored above 20% specific lysis)” throughout. Further, the “autoreactive response” value in data set [1] (PBMC of donor six (Trigger+)) and in data set [1] (PBMC of donor two (Trigger-)) was “- (a positive result was scored above 20% specific lysis)” in each case. Further, the “autocytotoxic responses against activated autologous T cell targets” value in data set [1] (setting [3]) is “did not produce significant levels”.
On to `CC(C)[C@H](NC(=O)[C@H](CCCNC(=N)N)NC(=O)[C@H](CCCNC(=N)N)NC(=O)[C@H](CCCCN)NC(=O)[C@H](C)NC(=O)[C@H](CCCCN)NC(=O)[C@@H](N)[C@@H](C)O)C(=O)N[C@H](C(=O)N[C@@H](CCC(=O)O)C(=O)N[C@@H](CCCNC(=N)N)C(=O)N[C@@H](CCC(=O)O)C(=O)N[C@@H](CCCCN)C(=O)N[C@@H](CCCNC(=N)N)C(=O)O)C(C)C` [VHP1, NH2 ThrLysAlaLysArgArgValValGluArgGluLysArgCOOH] (H-TKAKRRVVEREKR-OH), for which the “autoreactive response” value in data set [1] (PBMC of donor eight (Trigger+)) is “+ (a positive result was scored above 20% specific lysis)”; in data set [1] (PBMC of donor five (Trigger+)), “+ (a positive result was scored above 20% specific lysis)”; in data set [1] (PBMC of donor four (Trigger-)), “- (a positive result was scored above 20% specific lysis)”; in data set [1] (PBMC of donor nine (Trigger-)), “- (a positive result was scored above 20% specific lysis)”; in data set [1] (PBMC of donor one (Trigger-)), “- (a positive result was scored above 20% specific lysis)”; in data set [1] (PBMC of donor seven (Trigger+)), “+ (a positive result was scored above 20% specific lysis)”. The results for the “autoreactive response” value in data set [1] (PBMC of donor six (Trigger+)) and in data set [1] (PBMC of donor two (Trigger-)) were “+ (a positive result was scored above 20% specific lysis)” and “- (a positive result was scored above 20% specific lysis)”, respectively. Besides, the results for the “autocytotoxic responses against activated autologous T cell targets” value in data set [1] (short term cultures of PBMC from donors negative for B8 or B35 (trigger-)) and in data set [1] (setting [3]) were “did not produce significant levels” and “significant autocytoxic responses”, respectively. Moreover, the “percent specific lysis by 51Cr release” value in data set [2] (VHP1-induced Effectors JMC-B8, Target1-B8, Effector to Target Ratio 10:1) is recorded as 30%; in data set [2] (VHP1-induced Effectors JMC-B8, Target2-B35, Effector to Target Ratio 10:1), 30%; in data set [2] (VHP1-induced Effectors JMC-B8, Target3-B27, Effector to Target Ratio 10:1), 7%; in data set [2] (VHP1-induced Effectors SW-B35, Target1-B8, Effector to Target Ratio 10:1), 9%; in data set [2] (VHP1-induced Effectors SW-B35, Target2-B35, Effector to Target Ratio 10:1), 10%; in data set [2] (VHP1-induced Effectors SW-B35, Target3-B27, Effector to Target Ratio 10:1), 2%. Besides, the “percent specific lysis by 51Cr release” value in data set [2] (VHP1-induced Effectors WW-B35, Target1-B8, Effector to Target Ratio 10:1) is given as 30%; in data set [2] (VHP1-induced Effectors WW-B35, Target2-B35, Effector to Target Ratio 10:1), 32%; in data set [2] (VHP1-induced Effectors WW-B35, Target3-B27, Effector to Target Ratio 10:1), 14%.
